According to PubChem BioAssay AID328 (DTP/NCI, 2004):
“And” between values parts separate entries of the source, which are not always exact repeats. Equal entries are not always repeated. Inconclusive results and toxic doses are left out. How the source made its calls: active means survival T/C of 150% or more; inactive means T/C below 125% in these data.

Tested on: BDF1 mice, P388 leukemia ip, median survival T/C
Assay: NCI In Vivo Anticancer Drug Screen. Data for tumor model P388 Leukemia (intraperitoneal) in B6D2F1 (BDF1) mice
Conditions: endpoint: median survival time, higher = longer survival
Summary of the method: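 Vehicle-dosed animals serve as the reference; survival of compound-dosed, tumour-implanted mice is divided by it.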

Measured: T/C

O=C1C2C(c3cc4ccccc4n31)N2c1ccccc1 (stereo not drawn)
inactive: dose: 0.03 mg/kg/injection, schedule: Q01DX010 (ip), vehicle: water 110 % of control | dose: 0.06 mg/kg/injection, schedule: Q01DX010 (ip), vehicle: water 94 % of control | dose: 0.13 mg/kg/injection, schedule: Q01DX010 (ip), vehicle: water 94 % of control | dose: 0.25 mg/kg/injection, schedule: Q01DX010 (ip), vehicle: water 94 % of control | dose: 0.5 mg/kg/injection, schedule: Q01DX010 (ip), vehicle: water 105 % of control | dose: 1.0 mg/kg/injection, schedule: Q01DX010 (ip), vehicle: water 105 % of control | dose: 2.0 mg/kg/injection, schedule: Q01DX010 (ip), vehicle: water 105 % of control

Cc1cc2nc(Oc3ccccc3)nc(=O)n2c(C)n1
inactive: dose: 12.5 mg/kg/injection, schedule: Q01DX009 (ip), vehicle: saline with Tween-80 109 % of control | dose: 25.0 mg/kg/injection, schedule: Q01DX009 (ip), vehicle: saline with Tween-80 114 % of control | dose: 50.0 mg/kg/injection, schedule: Q01DX009 (ip), vehicle: saline with Tween-80 97 % of control

CCOC(=O)/C(O)=C(\C=N\C(N)=O)C(=O)OCC
inactive: dose: 50.0 mg/kg/injection, schedule: Q04DX003 (ip), vehicle: saline sonified 100 % of control | dose: 100.0 mg/kg/injection, schedule: Q04DX003 (ip), vehicle: saline sonified 105 % of control | dose: 200.0 mg/kg/injection, schedule: Q04DX003 (ip), vehicle: saline sonified 110 % of control

COc1ccc2c(c1)CCC1C2CCC2(C)/C(=N/O)C(Cl)C(O)C12 (stereo not drawn)
inactive: dose: 6.25 mg/kg/injection, schedule: Q01DX001 (ip), vehicle: saline with Tween-80 100 % of control | dose: 12.5 mg/kg/injection, schedule: Q01DX001 (ip), vehicle: saline with Tween-80 109 % of control | dose: 25.0 mg/kg/injection, schedule: Q01DX001 (ip), vehicle: saline with Tween-80 97 % of control

CCCCNC(=O)Nc1ccc(N(CC)CC)cc1
inactive: dose: 100.0 mg/kg/injection, schedule: Q04DX003 (ip), vehicle: saline with Tween-80 100 % of control | dose: 200.0 mg/kg/injection, schedule: Q04DX003 (ip), vehicle: saline with Tween-80 100 % of control | dose: 400.0 mg/kg/injection, schedule: Q04DX003 (ip), vehicle: saline with Tween-80 90 % of control

CCCCCCOCCN1CCN(CCCN2c3ccccc3Sc3ccc(C(F)(F)F)cc32)CC1
inactive: dose: 12.5 mg/kg/injection, schedule: Q04DX003 (ip), vehicle: saline with Tween-80 121 % of control | dose: 25.0 mg/kg/injection, schedule: Q04DX003 (ip), vehicle: saline with Tween-80 97 % of control and 112 % of control | dose: 50.0 mg/kg/injection, schedule: Q04DX003 (ip), vehicle: saline with Tween-80 94 % of control

CC1=C/C(O)CC(=O)Cc2nc(co2)C(=O)N2CCC=C2C(=O)OC(C(C)C)C(C)/C=C\C(=O)NC/C=C\1 (stereo not drawn)
inactive: dose: 100.0 mg/kg/injection, schedule: Q01DX009 (ip), vehicle: Klucel (hydroxypropylcellulose) (HPC) 118 % of control | dose: 0.5 micrograms/kg/injection, schedule: Q01DX009 (ip), vehicle: saline 105 % of control | dose: 1.0 micrograms/kg/injection, schedule: Q01DX009 (ip), vehicle: saline 101 % of control | dose: 2.0 micrograms/kg/injection, schedule: Q01DX009 (ip), vehicle: saline 108 % of control | dose: 4.0 micrograms/kg/injection, schedule: Q01DX009 (ip), vehicle: saline 101 % of control

O=C1c2cccc(O)c2C(=O)c2c(O)cccc21
inactive: dose: 100.0 mg/kg/injection, schedule: Q04DX003 (ip), vehicle: saline 100 % of control and 109 % of control | dose: 200.0 mg/kg/injection, schedule: Q04DX003 (ip), vehicle: saline 109 % of control | dose: 400.0 mg/kg/injection, schedule: Q04DX003 (ip), vehicle: saline 95 % of control and 118 % of control

O.[Co].[Co].[NH2-].[NH2-].[NH2-].[NH2-].[NH2-].[NH2-].[NH2-].[NH2-].[NH2-]
inactive: dose: 0.5 mg/kg/injection, schedule: Q01DX009 (ip), vehicle: water 100 % of control | dose: 1.5 mg/kg/injection, schedule: Q04DX003 (ip), vehicle: water 121 % of control | dose: 2.0 mg/kg/injection, schedule: Q01DX009 (ip), vehicle: water 95 % of control | dose: 3.0 mg/kg/injection, schedule: Q04DX003 (ip), vehicle: water 95 % of control | dose: 4.0 mg/kg/injection, schedule: Q01DX009 (ip), vehicle: water 100 % of control

CCN1C[C@]2(COC)[C@H](O)C[C@H](OC)[C@]34C1[C@H]([C@H](OC)[C@H]23)[C@]1(OC(C)=O)[C@H]2[C@@H](OC(=O)c3ccccc3)[C@](O)(C[C@H]24)[C@@H](OC)[C@@H]1O
inactive: dose: 0.13 mg/kg/injection, schedule: Q01DX009 (ip), vehicle: Klucel (hydroxypropylcellulose) (HPC) 93 % of control | dose: 0.25 mg/kg/injection, schedule: Q01DX009 (ip), vehicle: Klucel (hydroxypropylcellulose) (HPC) 91 % of control

C(=N\N(c1ccccc1)c1ccccc1)/c1ccc(/C=N/N(c2ccccc2)c2ccccc2)cc1
inactive: dose: 100.0 mg/kg/injection, schedule: Q04DX003 (ip), vehicle: Klucel (hydroxypropylcellulose) (HPC) 100 % of control | dose: 200.0 mg/kg/injection, schedule: Q04DX003 (ip), vehicle: Klucel (hydroxypropylcellulose) (HPC) 100 % of control | dose: 400.0 mg/kg/injection, schedule: Q04DX003 (ip), vehicle: Klucel (hydroxypropylcellulose) (HPC) 95 % of control

COC(OC)c1[nH]c(=S)[nH]c(=O)c1Cc1ccc(C)c(C)c1
inactive: dose: 100.0 mg/kg/injection, schedule: Q01DX009 (ip), vehicle: saline with Tween-80 103 % of control | dose: 200.0 mg/kg/injection, schedule: Q01DX009 (ip), vehicle: saline with Tween-80 96 % of control | dose: 400.0 mg/kg/injection, schedule: Q01DX009 (ip), vehicle: saline with Tween-80 100 % of control
